Experiments:
Pseudomonas aeruginosa [1] = assay: Antibiofilm activity against Pseudomonas aeruginosa PA14 after 24 hrs by crystal violet staining based method; format: functional
Pseudomonas aeruginosa [2] = assay: Inhibition of planktonic growth of Pseudomonas aeruginosa PA14 cells; format: organism-based
Salmonella typhimurium [3] = assay: Antibiofilm activity against Salmonella typhimurium ATCC 14028 after 24 hrs by crystal violet staining based method; format: functional, Salmonella enterica subsp. enterica serovar Typhimurium
Salmonella typhimurium [4] = assay: Inhibition of planktonic growth of Salmonella typhimurium ATCC 14028; format: organism-based, Salmonella enterica subsp. enterica serovar Typhimurium; details: Salmonella enterica
Staphylococcus aureus [5] = assay: Antibiofilm activity against Staphylococcus aureus SH1000 after 48 hrs by crystal violet staining based method; format: functional
Staphylococcus aureus [6] = assay: Inhibition of planktonic growth of Staphylococcus aureus SH1000; format: organism-based
A-375 = assay: Antiproliferative activity against human A375 cells after 48 hrs by MTT assay; format: functional, cell-based; details: A-375, 48 h
MIA PaCa-2 = assay: Antiproliferative activity against human MIAPaCa2 cells after 48 hrs by MTT assay; format: functional, cell-based; details: MIA PaCa-2, 48 h

Row | Compound | IC50 (A-375) [µM] | IC50 (MIA PaCa-2) [µM] | MBIC50 (Pseudomonas aeruginosa [1]) [µM] | IC50 (Pseudomonas aeruginosa [2]) [µM] | MBIC50 (Salmonella typhimurium [3]) [µM] | IC50 (Salmonella typhimurium [4]) [µM] | MBIC50 (Staphylococcus aureus [5]) [µM] | IC50 (Staphylococcus aureus [6]) [µM]
1 | CC(=O)O[C@H]1C(=O)[C@@]2(C)[C@H]([C@H](OC(=O)c3ccccc3)[C@]3(O)C[C@H](OC(=O)[C@H](O)[C@@H](NC(=O)c4ccccc4)c4ccccc4)C(C)=C1C3(C)C)[C@]1(OC(C)=O)CO[C@@H]1C[C@@H]2O [PACLITAXEL] | 0.7 | 2.5 |  |  |  |  |  | 
2 | O=C(OC[C@H]1O[C@@H](OC(=O)c2cc(O)c(O)c(OC(=O)c3cc(O)c(O)c(O)c3)c2)[C@H](OC(=O)c2cc(O)c(O)c(OC(=O)c3cc(O)c(O)c(O)c3)c2)[C@@H](OC(=O)c2cc(O)c(O)c(OC(=O)c3cc(O)c(O)c(O)c3)c2)[C@@H]1OC(=O)c1cc(O)c(O)c(OC(=O)c2cc(O)c(O)c(O)c2)c1)c1cc(O)c(O)c(OC(=O)c2cc(O)c(O)c(O)c2)c1 [TANNIC ACID] |  |  | 27.7 | > 400 | 18.8 | > 400 | 115.3 | > 400
3 | Nc1nc(CC2CCCCC2)c(-c2ccccc2Br)n1CC(=O)Nc1ccccc1 | 40.6 | 89 | >400 | > 400 | >400 | > 400 | >400 | > 400
4 | CC(C)(C)c1ccc(Cc2nc(N)n(CC(=O)NCc3ccccc3)c2-c2ccccc2Br)cc1 |  |  | >400 | > 400 | >400 | > 400 | >400 | > 400
5 | Nc1nc(Cc2ccccc2)c(-c2ccccc2Br)n1CC(=O)NCc1ccccc1 |  |  | 382.1 | 55.7 | 38.8 | > 400 | 41.5 | 55.7
6 | COc1ccc(NC(=O)Cn2c(N)nc(Cc3ccc(C(C)(C)C)cc3)c2-c2ccccc2Br)cc1 |  |  | >400 | > 400 | 231.2 | > 400 | 11.5 | 37.2
7 | Nc1nc(CC2CCCC2)c(-c2ccccc2Br)n1CC(=O)Nc1ccccc1 | 24.3 | 61.4 | >400 | > 400 | >400 | > 400 | >400 | > 400

The next lines start with results.

Row | IC50 (A-375) [µM] | IC50 (MIA PaCa-2) [µM] | Compound | MBIC50 (Pseudomonas aeruginosa [1]) [µM] | IC50 (Pseudomonas aeruginosa [2]) [µM] | MBIC50 (Salmonella typhimurium [3]) [µM] | IC50 (Salmonella typhimurium [4]) [µM] | MBIC50 (Staphylococcus aureus [5]) [µM] | IC50 (Staphylococcus aureus [6]) [µM]
8 | 2.4 | 5.2 | COc1ccc(Cc2nc(N)n(CC(=O)Nc3ccc(C)cc3)c2-c2ccccc2Br)cc1 | 8.9 | 24.6 | 6.3 | 50.5 | 8.2 | 16.1
9 | 2.8 | 4.9 | CC(C)(C)c1ccc(Cc2nc(N)n(CC(=O)Nc3ccccc3)c2-c2ccccc2Br)cc1 | 124.3 | > 400 | 12.5 | > 400 | 6.5 | 7.8
10 | 26.4 | 40.6 | CCCCCc1nc(N)n(CC(=O)Nc2ccccc2)c1-c1ccccc1Br | >400 | > 400 | >400 | > 400 | 21.3 | > 400
11 | 2.5 | 9.2 | Cc1ccc(Cc2nc(N)n(CC(=O)Nc3ccccc3)c2-c2ccccc2Br)cc1 | >400 | > 400 | >400 | > 400 | >400 | > 400
12 | 2 | 3.8 | Cc1ccc(NC(=O)Cn2c(N)nc(Cc3ccccc3)c2-c2ccccc2Br)cc1 | 16.8 | 13.8 | 6 | 29.8 | 7.6 | 12.3
13 | 5.2 | 7 | CCCCCCCc1nc(N)n(CC(=O)Nc2ccc(C)cc2)c1-c1ccccc1Br | 291.1 | 190 | 37.7 | > 400 | 14.4 | 22.8
